Test results as given in patent US20230293526A1, “METHOD FOR TREATING CANCER WITH A REVERSE TRANSCRIPTASE INHIBITOR” (PrimeFour Therapeutics, Inc., priority 2020, published 2023).

Key:
cancer cell lines = assay: Cancer cell proliferation activity of representative nucleosides, CellTiterGlo 72 h (Example 7, Tables 8 and 9); type: cell-based; conditions: 72 h
In short: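 Percent viability was set against 0.1% DMSO (100%) and 10 μM staurosporine (0%), with signal from CellTiterGlo luminescence. Dose-response treatment began one day after seeding and lasted 72 h at 37° C under 5% or 10% CO2, with 0.1% final DMSO.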

human LINE-1 = assay: Human LINE-1 (L1) retrotransposition dual-luciferase reporter assay in HeLa cells; type: cell-based; conditions: Homo sapiens, HeLa, 72 h, read-out: Human LINE-1 IC50 (Human L1 activity inhibition)
In short: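 Compound dilution series (final DMSO 0.2%) added right after transfecting HeLa cells with the pYX017 L1 dual-luciferase reporter; 72 h culture at 37 °C, 5% CO2, triplicates. IC50 fitted by non-linear logistic regression to firefly-to-Renilla luminescence ratio (×10,000).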

## C#C[C@]1(CO)O[C@@H](n2cnc3c(=O)[nH]c(N)nc32)C[C@@H]1O [compound 13]
Cancer cell lines; 72 h, 5637, bladder
  IC50: 2270 nM
Cancer cell lines; CLS439, bladder
  IC50: > 50000 nM
Cancer cell lines; HS729, muscle
  IC50: 1510 nM
Cancer cell lines; J82, bladder
  IC50: 1970 nM
Cancer cell lines; JAR, placenta
  IC50: > 50000 nM
Cancer cell lines; MT3, breast
  IC50: 370 nM
Cancer cell lines; PC3, prostate
  IC50: 1800 nM
Cancer cell lines; RD, muscle
  IC50: > 50000 nM
Cancer cell lines; T24, bladder
  IC50: 4540 nM
Cancer cell lines; Homo sapiens, 22Rv1, 72 h, 22RV1, prostate
  IC50: 2220 nM
Cancer cell lines; Homo sapiens, 786-0, 72 h, 786O, kidney
  IC50: > 50000 nM
Cancer cell lines; Homo sapiens, A204, 72 h, A204, muscle
  IC50: 270 nM
Cancer cell lines; Homo sapiens, A549, 72 h, A549, lung
  IC50: 2060 nM
Cancer cell lines; Homo sapiens, A673, 72 h, A673, bone
  IC50: > 50000 nM
Cancer cell lines; Homo sapiens, A2780, 72 h, A2780, ovary
  IC50: 15600 nM
Cancer cell lines; Homo sapiens, A-375, 72 h, A375, skin
  IC50: 2350 nM
Cancer cell lines; Homo sapiens, A-431, 72 h, A431, skin
  IC50: 3030 nM
Cancer cell lines; Homo sapiens, ACHN, kidney
  IC50: 1440 nM
Cancer cell lines; Homo sapiens, ASPC1, 72 h, ASPC1, pancreas
  IC50: 1330 nM
Cancer cell lines; Homo sapiens, BT-20, 72 h, BT20, breast
  IC50: > 50000 nM
Cancer cell lines; Homo sapiens, BXPC-3, 72 h, BXPC3, pancreas
  IC50: 1430 nM
Cancer cell lines; Homo sapiens, C-33-A, C33A, endometrial
  IC50: 2030 nM
Cancer cell lines; Homo sapiens, CAKI-1, 72 h, CAKI1, kidney
  IC50: 1840 nM
Cancer cell lines; Homo sapiens, COLO 205, 72 h, COLO205, colon
  IC50: 1470 nM
Cancer cell lines; Homo sapiens, COLO-678, 72 h, COLO678, colon
  IC50: 4090 nM
Cancer cell lines; Homo sapiens, Ca-Ski, CASKI, endometrial
  IC50: > 50000 nM
Cancer cell lines; Homo sapiens, Caco-2, 72 h, CACO2, colon
  IC50: > 50000 nM
Cancer cell lines; Homo sapiens, Calu-6, 72 h, CALU6, lung
  IC50: > 50000 nM
Cancer cell lines; Homo sapiens, DLD-1, 72 h, DLD1, colon
  IC50: > 50000 nM
Cancer cell lines; Homo sapiens, DU-145, 72 h, DU145, prostate
  IC50: 4070 nM
Cancer cell lines; Homo sapiens, EFO-21, 72 h, EFO21, ovary
  IC50: 4000 nM
Cancer cell lines; Homo sapiens, EJ-28, 72 h, EJ28, bladder
  IC50: 6820 nM
Cancer cell lines; Homo sapiens, Granta-519, 72 h, GRANTA-519, hematological
  IC50: 2440 nM
Cancer cell lines; Homo sapiens, HCT-15, 72 h, HCT15, colon
  IC50: > 50000 nM
Cancer cell lines; Homo sapiens, HCT-116, 72 h, HCT116, colon
  IC50: 3370 nM
Cancer cell lines; Homo sapiens, HEK293, 72 h, HEK293, kidney
  IC50: 7690 nM
Cancer cell lines; Homo sapiens, HL-60, 72 h, HL-60, hematological
  IC50: 2060 nM
Cancer cell lines; Homo sapiens, HT-29, 72 h, HT29, colon
  IC50: 2280 nM
Cancer cell lines; Homo sapiens, HT-1080, 72 h, HT1080, connective tissue
  IC50: 3880 nM
Cancer cell lines; Homo sapiens, HeLa, endometrial
  IC50: 1200 nM
Cancer cell lines; Homo sapiens, HepG2, 72 h, HEPG2, liver
  IC50: 1240 nM
Cancer cell lines; Homo sapiens, Hs-578T, HS578T, breast
  IC50: > 50000 nM
Cancer cell lines; Homo sapiens, IGROV-1, 72 h, IGROV1, ovary
  IC50: 2760 nM
Cancer cell lines; Homo sapiens, IMR-90, 72 h, IMR90, lung
  IC50: > 50000 nM
Cancer cell lines; Homo sapiens, JEG-3, 72 h, JEG3, placenta
  IC50: > 50000 nM
Cancer cell lines; Homo sapiens, JIMT-1, 72 h, JIMT1, breast
  IC50: 2040 nM
Cancer cell lines; Homo sapiens, K562, 72 h, K-562, hematological
  IC50: > 50000 nM
Cancer cell lines; Homo sapiens, Kasumi 1, 72 h, KASUMI-1, hematological
  IC50: 100 nM
Cancer cell lines; Homo sapiens, L-363, 72 h, L-363, hematological
  IC50: > 50000 nM
Cancer cell lines; Homo sapiens, LoVo, colon
  IC50: 3100 nM
Cancer cell lines; Homo sapiens, MCF7, 72 h, MCF7, breast
  IC50: 5950 nM
Cancer cell lines; Homo sapiens, MDA-MB-231, 72 h, MDAMB231, breast
  IC50: 1320 nM
Cancer cell lines; Homo sapiens, MDA-MB-435, 72 h, MDAMB435, skin
  IC50: > 50000 nM
Cancer cell lines; Homo sapiens, MDA-MB-436, 72 h, MDAMB436, breast
  IC50: 1500 nM
Cancer cell lines; Homo sapiens, MDA-MB-468, 72 h, MDAMB468, breast
  IC50: > 50000 nM
Cancer cell lines; Homo sapiens, MG-63, 72 h, MG63, bone
  IC50: > 50000 nM
Cancer cell lines; Homo sapiens, MHH-ES-1, 72 h, MHHES1, bone
  IC50: > 50000 nM
Cancer cell lines; Homo sapiens, MIA PaCa-2, 72 h, MIAPACA2, pancreas
  IC50: 6240 nM
Cancer cell lines; Homo sapiens, MINO, hematological
  IC50: 460 nM
Cancer cell lines; Homo sapiens, MV4-11, 72 h, MV4-11, hematological
  IC50: 1020 nM
Cancer cell lines; Homo sapiens, NCI-H23, 72 h, NCI-H23, lung
  IC50: 4670 nM
Cancer cell lines; Homo sapiens, NCI-H82, 72 h, NCIH82, lung
  IC50: 15400 nM
Cancer cell lines; Homo sapiens, NCI-H292, 72 h, NCIH292, lung
  IC50: 1070 nM
Cancer cell lines; Homo sapiens, NCI-H460, 72 h, NCIH460, ung
  IC50: 1410 nM
Cancer cell lines; Homo sapiens, OVCAR-3, 72 h, OVCAR3, ovary
  IC50: 760 nM
Cancer cell lines; Homo sapiens, OVCAR-4, 72 h, OVCAR4, ovary
  IC50: > 50000 nM
Cancer cell lines; Homo sapiens, PANC-1, 72 h, PANC1, pancreas
  IC50: > 50000 nM
Cancer cell lines; Homo sapiens, PLC-PRF-5, 72 h, PLCPRF5, liver
  IC50: 2100 nM
Cancer cell lines; Homo sapiens, Panc1005, 72 h, PANC1005, pancreas
  IC50: 3080 nM
Cancer cell lines; Homo sapiens, Ramos, hematological
  IC50: 1170 nM
Cancer cell lines; Homo sapiens, SAOS-2, 72 h, SAOS2, bone
  IC50: 1660 nM
Cancer cell lines; Homo sapiens, SF-268, 72 h, SF268, brain
  IC50: > 50000 nM
Cancer cell lines; Homo sapiens, SF-295, 72 h, SF295, brain
  IC50: 7160 nM
Cancer cell lines; Homo sapiens, SK-BR-3, 72 h, SKBR3, breast
  IC50: 4610 nM
Cancer cell lines; Homo sapiens, SK-HEP1, 72 h, SKHEP1, liver
  IC50: 2290 nM
Cancer cell lines; Homo sapiens, SK-LMS-1, 72 h, SKLMS1, uterus
  IC50: 2380 nM
Cancer cell lines; Homo sapiens, SK-MEL-5, 72 h, SKMEL5, skin
  IC50: > 50000 nM
Cancer cell lines; Homo sapiens, SK-MEL-28, 72 h, SKMEL28, skin
  IC50: 6060 nM
Cancer cell lines; Homo sapiens, SK-N-AS, SKNAS, brain
  IC50: 2440 nM
Cancer cell lines; Homo sapiens, SK-N-SH, SKNSH, brain
  IC50: 2290 nM
Cancer cell lines; Homo sapiens, SK-OV-3, 72 h, SKOV3, ovary
  IC50: 2020 nM
Cancer cell lines; Homo sapiens, SNB-75, 72 h, SNB75, brain
  IC50: 12800 nM
Cancer cell lines; Homo sapiens, SU-DHL10, 72 h, SU-DHL-10, hematological
  IC50: 5600 nM
Cancer cell lines; Homo sapiens, SU-DHL-6, 72 h, SU-DHL-6, hematological
  IC50: 4190 nM
Cancer cell lines; Homo sapiens, SW-620, 72 h, SW620, colon
  IC50: 1820 nM
Cancer cell lines; Homo sapiens, TE-671, 72 h, TE671, muscle
  IC50: > 50000 nM
Cancer cell lines; Homo sapiens, THP-1, 72 h, THP-1, hematological
  IC50: 1970 nM
Cancer cell lines; Homo sapiens, U2OS, bone
  IC50: > 50000 nM
Cancer cell lines; Homo sapiens, U-87 MG, U87MG, brain
  IC50: 2380 nM
Cancer cell lines; Homo sapiens, UMUC3, 72 h, UMUC3, bladder
  IC50: > 50000 nM
Cancer cell lines; Homo sapiens, UO-31, 72 h, UO31, kidney
  IC50: 3290 nM
Cancer cell lines; Homo sapiens, WSU-NHL, hematological
  IC50: 2770 nM
Cancer cell lines; NCI-H358M, NCIH358M, lung
  IC50: 330 nM
Cancer cell lines; PBMC, hematological
  IC50: 190 nM
Cancer cell lines; RD-ES, RDES, bone
  IC50: 2480 nM
Human LINE-1
  IC50: 0.51 nM
